Reference: the NIST ThermoML archive (doi:10.1016/j.tca.2004.12.009)
Numbers after ± are expanded uncertainties.

Columns and labels:
[1] = DTA
[2] = Molar enthalpy of transition or fusion; settings: DSC

For `NC(N)=Nc1nc(CSCC/C(N)=N/S(N)(=O)=O)cs1` [famotidine], which Normal melting temperature ([1]; Crystal 1) is on record?
Its Normal melting temperature is 170.60 ± 0.6 °C.

And the Normal melting temperature ([1]; Metastable crystal)?
The Normal melting temperature was 162.90 ± 0.9 °C.

What about the “Molar enthalpy of transition or fusion” value ([2]; Crystal 1) of the same molecule?
The value was 13.2 ± 0.43 kcal/mol.

What about the “Molar enthalpy of transition or fusion” value ([2]; Metastable crystal) of the same molecule?
Its value is 12.2 ± 0.813 kcal/mol.
